Activity calls are given as the source filed them. The rule behind the calls is not given here.
Assays:
Acetylcholinesterase [1] = biological target: T1, Acetylcholinesterase (Homo sapiens, UniProt P22303); experiment: Inhibition of human erythrocyte acetylcholinesterase using acetylthiocholine iodide as substrate pre-incubated for 10 mins followed by substrate addition and measured for 6 mins by Ellman's method
Beta-secretase 1 = Beta-secretase 1 (Homo sapiens, UniProt P56817); experiment: Inhibition of human BACE1 using as 7-Methoxycoumarin-4-acetyl-[Asn670, Leu671]-Amyloid beta/A4 precursor protein 770 fragment 667-676-(2,4-dinitrophenyl) Lys-Arg-Arg amide trifluoroacetate salt as substrate incubated for 2 hrs by FRET based florescence assay
Cholinesterase = Cholinesterase (Homo sapiens, UniProt P06276); experiment: Inhibition of human serum butyrylcholinesterase using BTCI as substrate pre-incubated for 10 mins followed by substrate addition and measured for 6 mins by Ellman's method
[2] = Permeability of the compound at 25 ug/ml after 18 hrs by PAMPA-BBB assay
Rattus norvegicus [3] = experiment: Cognitive enhancing effect in Wistar rat model of amyloid beta (1 to 42) oligomer-induced memory impairment model assessed as escape latency time at 5 mg/kg, po for 9 days by Morris water maze test (reference value: 49.3 to 74 secs); format: functional
[4] = Acute toxicity in Wistar rat assessed as induction of abnormal reactions at 100 to 500 mg/kg, po measured up to 14 days; format: organism-based; details: in vivo, 336 h
Acetylcholinesterase [5] = biological target: T1, Acetylcholinesterase; experiment: Non-competitive inhibition of human erythrocyte AChE using acetylthiocholine iodide as substrate preincubated for 10 mins followed by substrate addition and measured for 6 mins by Dixon plot analysis
Acetylcholinesterase [6] = biological target: T1, Acetylcholinesterase; experiment: Non-competitive inhibition of human erythrocyte AChE using acetylthiocholine iodide as substrate preincubated for 10 mins followed by substrate addition and measured for 6 mins by Lineweaver-Burk plot analysis
Rattus norvegicus [7] = experiment: Antioxidant activity Wistar rat model of scopolamine-induced amnesia assessed as reduction in MDA levels in brain homogenates at 10 mg/kg, po by TBARS assay; format: functional, organism-based
[8] = AUC (0 to 24 hrs) in Wistar rat at 10 mg/kg, po; format: ADME, organism-based; design: dose 10 mg/kg, time < 24 hr, route oral; details: in vivo
Rattus norvegicus [9] = experiment: In-vivo inhibition of scopolamine-induced acetylcholinesterase activity in Wistar rat brain homogenates using acetylthiocholine iodide as substrate at 10 mg/kg, po and measured for 6 mins by Ellman's method; format: functional, organism-based
Rattus norvegicus [10] = experiment: Reversal of scopolamine-induced spatial memory impairment in Wistar rat model of amnesia assessed as decrease in transfer latency at 2.5 to 10 mg/kg, po administered once daily for 1 week followed by scopolamine challenge 30 mins prior to test by elevated plus maze test; format: functional, organism-based
[11] = Tmax in Wistar rat at 10 mg/kg, po measured up to 0 to 72 hrs; format: ADME, organism-based; details: in vivo
[12] = biological target: Amyloid-beta precursor protein (Homo sapiens) (UniProt P05067); experiment: Inhibition of amyloid beta 1 to 42 (unknown origin) aggregation assessed as roughness index at 10 uM incubated for 7 days by AFM analysis
Rattus norvegicus [13] = experiment: Reversal of scopolamine-induced spatial memory impairment in Wistar rat model of amnesia assessed as decrease in time spent on open arms at 2.5 to 10 mg/kg, po administered once daily for 1 week followed by scopolamine challenge 30 mins prior to test by elevated plus maze test; format: functional, organism-based
[14] = MRT in Wistar rat at 10 mg/kg, po measured up to 0 to 72 hrs; format: ADME, organism-based; details: in vivo
Rattus norvegicus [15] = experiment: Antioxidant activity Wistar rat model of scopolamine-induced amnesia assessed as increase in SOD levels in brain homogenates at 10 mg/kg, po by NBT dye based assay; format: functional, organism-based
Rattus norvegicus [16] = experiment: Effect on total arm entries in scopolamine-induced spatial memory impairment in Wistar rat model of amnesia at 10 mg/kg, po administered once daily for 1 week followed by scopolamine challenge 30 mins prior to test by Y-maze test relative to control; format: functional, organism-based
[17] = Elimination half life in Wistar rat at 10 mg/kg, po measured up to 0 to 72 hrs; format: ADME, organism-based; details: in vivo, read-out: beta t1/2 (converted)
Rattus norvegicus [18] = experiment: Reversal of scopolamine-induced spatial memory impairment in Wistar rat model of amnesia assessed as increase in spontaneous alteration at 10 mg/kg, po administered once daily for 1 week followed by scopolamine challenge 30 mins prior to test by Y-maze test relative to control; format: functional, organism-based
[19] = biological target: Amyloid-beta precursor protein (Homo sapiens) (UniProt P05067); experiment: Inhibition of amyloid beta 1 to 42 (unknown origin) aggregation assessed as oligomer height at 10 uM incubated for 7 days by AFM analysis
[20] = Cytotoxicity against human SH-SY5Y cells assessed as cell viability at 10 to 80 uM after 48 hrs by MTT assay relative to control; format: cell-based; details: read-out: Activity
[21] = Acute toxicity in Wistar rat at 100 to 500 mg/kg, po measured up to 14 days; format: organism-based; details: in vivo, 336 h
Rattus norvegicus [22] = experiment: Cognitive enhancing effect in Wistar rat model of amyloid beta (1 to 42) oligomer-induced memory impairment model assessed as increase in number of platform crossings at 10 mg/kg, po for 9 days by Morris water maze test; format: functional, organism-based
Rattus norvegicus [23] = experiment: Cognitive enhancing effect in Wistar rat model of amyloid beta (1 to 42) oligomer-induced memory impairment model assessed as escape latency time at 10 mg/kg, po for 9 days by Morris water maze test (reference value: 49.3 to 74 secs); format: functional, organism-based
[24] = Cmax in Wistar rat at 10 mg/kg, po measured up to 0 to 72 hrs; format: ADME, organism-based; design: dose 10 mg/kg, route oral; details: in vivo

T1 sequence (P22303 whole entry, the tested form may be a part): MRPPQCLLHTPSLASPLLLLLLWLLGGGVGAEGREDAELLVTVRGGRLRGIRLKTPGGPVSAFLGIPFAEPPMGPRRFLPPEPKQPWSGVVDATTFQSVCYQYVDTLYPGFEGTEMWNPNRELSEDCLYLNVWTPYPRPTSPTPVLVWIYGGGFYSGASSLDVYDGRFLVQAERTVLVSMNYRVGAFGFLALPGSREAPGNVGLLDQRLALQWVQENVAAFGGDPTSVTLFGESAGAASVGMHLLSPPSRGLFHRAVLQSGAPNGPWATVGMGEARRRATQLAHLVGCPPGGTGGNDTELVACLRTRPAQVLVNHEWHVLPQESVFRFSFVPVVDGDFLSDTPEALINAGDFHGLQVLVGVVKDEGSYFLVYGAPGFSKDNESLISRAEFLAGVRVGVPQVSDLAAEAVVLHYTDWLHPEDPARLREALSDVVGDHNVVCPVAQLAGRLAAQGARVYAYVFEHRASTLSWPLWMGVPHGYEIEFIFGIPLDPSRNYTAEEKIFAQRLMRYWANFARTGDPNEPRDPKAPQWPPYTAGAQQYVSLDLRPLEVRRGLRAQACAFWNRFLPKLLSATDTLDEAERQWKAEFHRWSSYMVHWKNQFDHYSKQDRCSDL
Sequence of Cholinesterase (P06276 whole entry): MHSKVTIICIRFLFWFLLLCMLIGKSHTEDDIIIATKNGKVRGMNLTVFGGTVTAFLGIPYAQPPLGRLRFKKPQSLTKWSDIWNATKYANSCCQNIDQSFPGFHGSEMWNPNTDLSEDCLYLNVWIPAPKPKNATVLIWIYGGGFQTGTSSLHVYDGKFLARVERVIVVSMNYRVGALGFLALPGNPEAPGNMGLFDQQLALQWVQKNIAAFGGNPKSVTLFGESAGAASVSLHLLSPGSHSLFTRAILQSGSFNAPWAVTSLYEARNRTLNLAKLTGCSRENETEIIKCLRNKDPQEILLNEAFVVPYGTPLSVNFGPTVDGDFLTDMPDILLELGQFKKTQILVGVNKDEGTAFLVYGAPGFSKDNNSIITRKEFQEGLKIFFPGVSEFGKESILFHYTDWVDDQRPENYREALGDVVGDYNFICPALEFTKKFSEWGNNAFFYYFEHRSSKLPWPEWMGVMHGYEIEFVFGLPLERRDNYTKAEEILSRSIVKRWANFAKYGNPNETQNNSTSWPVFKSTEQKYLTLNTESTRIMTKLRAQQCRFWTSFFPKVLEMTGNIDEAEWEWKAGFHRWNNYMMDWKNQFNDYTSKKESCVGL
Sequence of Beta-secretase 1 (P56817 whole entry, the tested form may be a part): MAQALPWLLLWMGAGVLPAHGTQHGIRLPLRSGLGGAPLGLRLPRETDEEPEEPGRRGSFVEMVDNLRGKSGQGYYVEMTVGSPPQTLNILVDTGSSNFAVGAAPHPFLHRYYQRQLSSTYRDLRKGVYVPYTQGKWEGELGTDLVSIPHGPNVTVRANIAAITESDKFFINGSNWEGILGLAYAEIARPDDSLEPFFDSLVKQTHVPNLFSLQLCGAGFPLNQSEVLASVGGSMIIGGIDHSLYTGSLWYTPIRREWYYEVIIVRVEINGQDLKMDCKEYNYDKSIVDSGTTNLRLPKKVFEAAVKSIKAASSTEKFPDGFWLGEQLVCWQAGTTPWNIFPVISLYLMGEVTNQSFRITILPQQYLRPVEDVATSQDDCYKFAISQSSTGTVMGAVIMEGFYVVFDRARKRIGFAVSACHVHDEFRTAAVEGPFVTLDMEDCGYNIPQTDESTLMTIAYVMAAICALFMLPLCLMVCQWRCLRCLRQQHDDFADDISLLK
Sequence of Amyloid-beta precursor protein (Homo sapiens) (P05067 whole entry): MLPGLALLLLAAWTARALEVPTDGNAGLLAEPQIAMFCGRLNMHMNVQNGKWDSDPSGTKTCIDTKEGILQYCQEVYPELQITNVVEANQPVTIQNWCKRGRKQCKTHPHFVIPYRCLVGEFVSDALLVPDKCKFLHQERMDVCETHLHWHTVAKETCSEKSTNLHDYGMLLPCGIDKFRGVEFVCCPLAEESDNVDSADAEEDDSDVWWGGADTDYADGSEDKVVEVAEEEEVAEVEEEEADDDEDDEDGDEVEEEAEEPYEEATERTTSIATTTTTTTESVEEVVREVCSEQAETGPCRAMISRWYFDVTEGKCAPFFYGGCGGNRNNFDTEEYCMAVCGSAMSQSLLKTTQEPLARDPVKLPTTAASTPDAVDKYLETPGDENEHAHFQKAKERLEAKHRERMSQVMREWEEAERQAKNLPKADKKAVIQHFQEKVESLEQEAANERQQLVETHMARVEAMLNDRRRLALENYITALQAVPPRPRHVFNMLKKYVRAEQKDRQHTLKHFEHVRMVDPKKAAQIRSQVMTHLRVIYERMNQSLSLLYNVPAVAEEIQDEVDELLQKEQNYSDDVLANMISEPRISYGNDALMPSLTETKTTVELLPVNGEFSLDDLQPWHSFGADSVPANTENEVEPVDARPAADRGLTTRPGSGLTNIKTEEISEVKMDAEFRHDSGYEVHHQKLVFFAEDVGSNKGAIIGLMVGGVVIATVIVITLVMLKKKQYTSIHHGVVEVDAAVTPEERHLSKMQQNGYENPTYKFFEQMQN

FC(F)(F)Oc1ccc(CNC2CCN(Cc3ccccc3)CC2)cc1
IC50 (Acetylcholinesterase [1]): 0.59 µM | IC50 (Beta-secretase 1): 1.4 µM | IC50 (Cholinesterase): 3.5 µM

Clc1ccc(/C=N/C2CCN(Cc3ccccc3)CC2)cc1
IC50 (Acetylcholinesterase [1]): 1.5 µM | IC50 (Beta-secretase 1): 1.7 µM | IC50 (Cholinesterase): 4.6 µM

Clc1ccc(CNC2CCN(Cc3ccccc3)CC2)c(Cl)c1
IC50 (Acetylcholinesterase [1]): 0.62 µM | IC50 (Beta-secretase 1): 3 µM | IC50 (Cholinesterase): 3.5 µM

Fc1ccc(CNC2CCN(Cc3ccccc3)CC2)cc1
IC50 (Acetylcholinesterase [1]): 1.2 µM | IC50 (Beta-secretase 1): 0.55 µM | IC50 (Cholinesterase): 3.9 µM

FC(F)(F)c1ccc(/C=N/C2CCN(Cc3ccccc3)CC2)cc1
IC50 (Acetylcholinesterase [1]): 0.44 µM | IC50 (Beta-secretase 1): 0.28 µM | IC50 (Cholinesterase): 3.9 µM | Papp at 18 h, 25 ug/ml [2]: 6.24 ×10⁻⁶ cm/s

Oc1ccc(/C=N/C2CCN(Cc3ccccc3)CC2)cc1
IC50 (Acetylcholinesterase [1]): 4.8 µM | IC50 (Beta-secretase 1): 12 µM | IC50 (Cholinesterase): > 30 µM

Oc1ccc(CNC2CCN(Cc3ccccc3)CC2)cc1
IC50 (Acetylcholinesterase [1]): 4 µM | IC50 (Beta-secretase 1): 9.9 µM | IC50 (Cholinesterase): > 30 µM

COc1cc2c(cc1OC)C(=O)C(CC1CCN(Cc3ccccc3)CC1)C2 (stereo unspecified) [DONEPEZIL]
Time (Rattus norvegicus [3]): 22.5 to 72.5 s

Oc1ccc(/C=N/C2CCN(Cc3ccccc3)CC2)c(O)c1
IC50 (Acetylcholinesterase [1]): 2.6 µM | IC50 (Beta-secretase 1): 10 µM | IC50 (Cholinesterase): 19 µM

FC(F)(F)Oc1ccc(/C=N/C2CCN(Cc3ccccc3)CC2)cc1
IC50 (Acetylcholinesterase [1]): 1 µM | IC50 (Beta-secretase 1): 1.8 µM | IC50 (Cholinesterase): 5.5 µM

O=[N+]([O-])c1ccc(/C=N/C2CCN(Cc3ccccc3)CC2)cc1
IC50 (Acetylcholinesterase [1]): 0.9 µM | IC50 (Beta-secretase 1): 0.73 µM | IC50 (Cholinesterase): 7.3 µM | Papp at 18 h, 25 ug/ml [2]: 4.99 ×10⁻⁶ cm/s

COc1cccc(/C=N/C2CCN(Cc3ccccc3)CC2)c1OC
IC50 (Acetylcholinesterase [1]): > 15 µM | IC50 (Beta-secretase 1): 6.3 µM | IC50 (Cholinesterase): > 30 µM

FC(F)(F)c1ccc(CNC2CCN(Cc3ccccc3)CC2)cc1
Activity [4]: Non-Toxic | Ki (Acetylcholinesterase [5]): 0.1 µM | inhibition (Acetylcholinesterase [6]): Active | Activity (Rattus norvegicus [7]): Active | AUC(0-t) at 24 h [8]: 633 ng·h/mL | Time (Rattus norvegicus [3]): 20.3 to 74.5 s | inhibition (Rattus norvegicus [9]): Active | Activity (Rattus norvegicus [10]): Active | IC50 (Acetylcholinesterase [1]): 0.11 µM | Tmax [11]: 5.3 h | Activity [12]: 1.7 to 4.4 nm | Activity (Rattus norvegicus [13]): Active | MRT [14]: 45.7 h | IC50 (Beta-secretase 1): 0.22 µM | Activity (Rattus norvegicus [15]): Active | IC50 (Cholinesterase): 3 µM | Activity (Rattus norvegicus [16]): inactive | half-life [17]: 29.2 h | Activity (Rattus norvegicus [18]): Active | Activity [19]: 44.5 to 104 nm | viability at 48 h, up to 80 µM [20]: 84.6 to 99.2% | Activity [21]: Non-Toxic | Papp at 18 h, 25 ug/ml [2]: 6.09 ×10⁻⁶ cm/s | Activity (Rattus norvegicus [22]): Active | Activity (Rattus norvegicus [23]): Active | Cmax [24]: 32.8 ng/mL

Fc1ccc(/C=N/C2CCN(Cc3ccccc3)CC2)cc1
IC50 (Acetylcholinesterase [1]): 2.9 µM | IC50 (Beta-secretase 1): 1.5 µM | IC50 (Cholinesterase): > 30 µM

Oc1ccccc1CNC1CCN(Cc2ccccc2)CC1
IC50 (Acetylcholinesterase [1]): 2.4 µM | IC50 (Beta-secretase 1): 2 µM | IC50 (Cholinesterase): 14 µM

COc1cccc(CNC2CCN(Cc3ccccc3)CC2)c1OC
IC50 (Acetylcholinesterase [1]): 2.2 µM | IC50 (Beta-secretase 1): 5.3 µM | IC50 (Cholinesterase): 7.2 µM

COc1cc(CNC2CCN(Cc3ccccc3)CC2)cc(OC)c1OC
IC50 (Acetylcholinesterase [1]): 2.2 µM | IC50 (Beta-secretase 1): 13 µM | IC50 (Cholinesterase): 11 µM

Cc1ccc(CNC2CCN(Cc3ccccc3)CC2)cc1
IC50 (Acetylcholinesterase [1]): 3.7 µM | IC50 (Beta-secretase 1): 17 µM | IC50 (Cholinesterase): > 30 µM

Cc1cccc(CNC2CCN(Cc3ccccc3)CC2)c1
IC50 (Acetylcholinesterase [1]): 4.1 µM | IC50 (Beta-secretase 1): 2.6 µM | IC50 (Cholinesterase): > 30 µM

Fc1ccc(CNC2CCN(Cc3ccccc3)CC2)c(F)c1
IC50 (Acetylcholinesterase [1]): 0.71 µM | IC50 (Beta-secretase 1): 2.9 µM | IC50 (Cholinesterase): 3.1 µM

Oc1ccc(CNC2CCN(Cc3ccccc3)CC2)c(O)c1
IC50 (Acetylcholinesterase [1]): 2.3 µM | IC50 (Beta-secretase 1): 5.9 µM | IC50 (Cholinesterase): 18 µM

Cc1cccc(/C=N/C2CCN(Cc3ccccc3)CC2)c1
IC50 (Acetylcholinesterase [1]): > 15 µM | IC50 (Beta-secretase 1): 3.3 µM | IC50 (Cholinesterase): > 30 µM

C(=N\C1CCN(Cc2ccccc2)CC1)/c1ccccc1
IC50 (Acetylcholinesterase [1]): 2.1 µM | IC50 (Beta-secretase 1): 3.4 µM | IC50 (Cholinesterase): > 30 µM

Oc1ccccc1/C=N/C1CCN(Cc2ccccc2)CC1
IC50 (Acetylcholinesterase [1]): 2.8 µM | IC50 (Beta-secretase 1): 2.7 µM | IC50 (Cholinesterase): 16 µM

COc1cc(/C=N/C2CCN(Cc3ccccc3)CC2)cc(OC)c1OC
IC50 (Acetylcholinesterase [1]): > 15 µM | IC50 (Beta-secretase 1): 14 µM | IC50 (Cholinesterase): 11 µM

c1ccc(CNC2CCN(Cc3ccccc3)CC2)cc1
IC50 (Acetylcholinesterase [1]): 1.7 µM | IC50 (Beta-secretase 1): 2.9 µM | IC50 (Cholinesterase): 12 µM

Clc1ccc(CNC2CCN(Cc3ccccc3)CC2)cc1
IC50 (Acetylcholinesterase [1]): 0.85 µM | IC50 (Beta-secretase 1): 0.66 µM | IC50 (Cholinesterase): 4 µM

Cc1ccc(/C=N/C2CCN(Cc3ccccc3)CC2)cc1
IC50 (Acetylcholinesterase [1]): 4.4 µM | IC50 (Beta-secretase 1): 19 µM | IC50 (Cholinesterase): > 30 µM

Fc1ccc(/C=N/C2CCN(Cc3ccccc3)CC2)c(F)c1
IC50 (Acetylcholinesterase [1]): 1.3 µM | IC50 (Beta-secretase 1): 3.5 µM | IC50 (Cholinesterase): > 30 µM

O=[N+]([O-])c1ccc(CNC2CCN(Cc3ccccc3)CC2)cc1
Activity [4]: Non-Toxic | Activity (Rattus norvegicus [7]): Active | inhibition (Rattus norvegicus [9]): Active | Activity (Rattus norvegicus [10]): Active | IC50 (Acetylcholinesterase [1]): 0.72 µM | Activity (Rattus norvegicus [13]): Active | IC50 (Beta-secretase 1): 0.43 µM | Activity (Rattus norvegicus [15]): Active | IC50 (Cholinesterase): 7.8 µM | Activity (Rattus norvegicus [16]): inactive | viability at 48 h, up to 80 µM [20]: 76.3 to 96.3% | Activity [21]: Non-Toxic | Papp at 18 h, 25 ug/ml [2]: 4.41 ×10⁻⁶ cm/s

Clc1ccc(/C=N/C2CCN(Cc3ccccc3)CC2)c(Cl)c1
IC50 (Acetylcholinesterase [1]): 1.3 µM | IC50 (Beta-secretase 1): 3.9 µM | IC50 (Cholinesterase): 5.8 µM
